Test results from US12180198B2, “Ribocil C antibiotics effective for Gram-negative pathogens” (THE BOARD OF TRUSTEES OF THE UNIVERSITY OF ILLINOIS, priority 2018, dated 2024).
In brackets after ≈: the same amount, converted by molar mass.

How the values were obtained:
E. coli BAA-2340 = experiment: MIC, micro-dilution broth method; format: cell-based; conditions: Escherichia coli, BAA2340; E. coli BAA-2340; read-out: MIC
Description: (§1) Compounds were evaluated against a panel of Gram-positive and Gram-negative organisms. MIC values were determined using the micro-dilution broth method as outlined by the Clinical and Laboratory Standards Institute (clsi.org/) and are listed in […]. All experiments were performed in biological triplicate.
(§2) Antimicrobial susceptibility tests. Susceptibility testing was performed in biological triplicate, using the micro-dilution broth method as outlined by the Clinical and Laboratory Standards Institute. Bacteria were cultured with cation-adjusted Muller-Hinton broth (Sigma-Aldrich, Cat #90922) in round-bottom 96-well plates (Corning, Cat #3788). Human serum (pooled gender, 0.2 μm filtered) was purchased from BioIVT (Hicksville, NY).

E. coli ΔtolC JW5503 = experiment: MIC, micro-dilution broth method; format: cell-based; conditions: Escherichia coli
Description: as §1, §2

A. baumannii W41979 = experiment: MIC, micro-dilution broth method; format: cell-based; conditions: Acinetobacter baumannii; A. baumannii W41979; read-out: MIC
Description: as §1, §2

E. coli AR-0493 = experiment: MIC, micro-dilution broth method; format: cell-based; conditions: Escherichia coli, AR0493; E. coli AR-0493; read-out: MIC
Description: as §1, §2

K. pneumoniae S47889 = experiment: MIC, micro-dilution broth method; format: cell-based; conditions: Klebsiella pneumoniae; K. pneumoniae S47889; read-out: MIC
Description: as §1, §2

E. cloacae ATCC 29893 = experiment: MIC, micro-dilution broth method; format: cell-based; conditions: Enterobacter cloacae, ATCC29893; E. cloacae ATCC 29893; read-out: MIC
Description: as §1, §2

P. aeruginosa PA01 = experiment: MIC, micro-dilution broth method; format: cell-based; conditions: Pseudomonas aeruginosa; P. aeruginosa PA01; read-out: MIC
Description: as §1, §2

E. coli ΔrfaC JW3596 = experiment: MIC, micro-dilution broth method; format: cell-based; conditions: Escherichia coli
Description: as §1, §2

E. coli MG1655 = experiment: MIC, micro-dilution broth method; format: cell-based; conditions: Escherichia coli; E. coli MG1655; read-out: MIC
Description: as §1, §2

S. aureus ATCC 29213 = experiment: MIC, micro-dilution broth method; format: cell-based; conditions: Staphylococcus aureus, ATCC29213, S. aureus ATCC 29213; read-out: MIC
Description: as §1, §2

E. coli FabI = E. coli FabI (Escherichia coli, UniProt P0AEK4); experiment: In vitro FabI inhibition assay; format: biochemical; conditions: 20 nM enzyme
Sequence of E. coli FabI (P0AEK4 whole entry): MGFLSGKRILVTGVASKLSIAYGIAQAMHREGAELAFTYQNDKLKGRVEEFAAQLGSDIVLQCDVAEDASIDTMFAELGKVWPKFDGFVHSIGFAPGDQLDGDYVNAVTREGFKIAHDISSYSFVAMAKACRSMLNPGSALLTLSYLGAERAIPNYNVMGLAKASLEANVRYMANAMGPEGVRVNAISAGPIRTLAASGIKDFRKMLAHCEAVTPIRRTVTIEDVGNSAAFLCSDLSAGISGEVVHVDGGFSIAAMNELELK
Description: Expression and purification of E. coli FabI. E. coli BL21 (DE3) pLysS (Novagen) were transformed with pET15-ecFabI. Overnight culture (10 mL) in LB supplemented with 50 μg/mL ampicillin from single colony was diluted into 1 L LB+50 μg/mL ampicillin. Cells were grown at 37° C., 250 rpm until OD600 reached 0.8. Culture was cooled to 18° C. and induced with 0.5 mM IPTG for 18 h at 18° C. Cells were harvested by centrifugation (5,000×g, 10 min, 4° C.). Cell pellets were flash frozen and store at −20° C. pending purification. Frozen cell pellets were thawed on ice and resuspended (5 mL per gram wet pellet, typically 20-30 mL) with 0.5% CHAPS, 1 mM PMSF, 1 μg/mL leupeptin, 1 μg/mL pepstatin A, and 2 μg/mL aprotinin in binding buffer [20 mM Tris (pH 7.9), 500 mM NaCl, 5 mM imidazole]. Cells were lysed by sonication on ice (30%, 10 s pulse, 20 s rest, 5 min total). Lysate was clarified by centrifugation (35,000×g, 1 h, 4° C.) and filtration through 0.2 μm syringe filter. Lysate was incubated with 5 mL Co-NTA agarose (HisPur cobalt resin, Thermo-Fisher Scientific Cat #89965, pre-equilibrated with binding buffer) for 30 min at 4° C. with gentle rocking. Agarose-containing lysate was transferred to column and flow through discarded. Column was washed with 2 column volumes of binding buffer followed by 10 column volumes of wash buffer [20 mM Tris (pH 7.9), 500 mM NaCl, 60 mM imidazole]. Protein was eluted with 15 mL elution buffer [20 mM Tris (pH 7.9), 500 mM NaCl, 300 mM imidazole]. […] Protein concentration was determined by BCA assay (ThermoFisher Cat #23227).
In vitro FabI inhibition assay. […] Plate was placed in plate-reader (SpectraMax 190, Molecular Devices) under temperature control (25° C.), and temperature was allowed to equilibrate. […] After shaking for 5 s, reaction progress was monitored by absorbance at 340 nm every 15 s for 90 min. Linear portion of reaction progress curve was fit using plate-reader software (SoftMax Pro 7.0). Percent activity was calculated relative to DMSO-only and no-enzyme controls in each plate. […]

[1] = tested on: Gram-negative ESKAPE pathogens and E. coli; experiment: MIC, micro-dilution broth method (text summary); format: cell-based; conditions: Gram-negatives with intact outer membranes
Description: FIG. 2. Antimicrobial activity of Debio-1452 and derivatives. MIC values were determined using the micro-dilution broth method as outlined by the Clinical and Laboratory Standards Institute (clsi.org/). All experiments were performed in biological triplicate.
as §2

Compound Cc1c(CN(C)C(=O)/C=C/c2cnc3c(c2)CC(NC(=O)OC(C)(C)C)C(=O)N3)oc2ccccc12 (stereo not drawn) [compound 8, tert-butyl(E)-(6-(3-(methyl((3-methylbenzofuran-2-yl)methyl)amino)-3-oxoprop-1-en-1-yl)-2-oxo-1,2,3,4-tetrahydro-1,8-naphthyridin-3-yl)carbamate] has an MIC (E. coli BAA-2340) greater than 32 µg/mL, an MIC (E. coli ΔtolC JW5503) of 0.125 µg/mL (≈ 0.255 µM) and an MIC (A. baumannii W41979) greater than 32 µg/mL. The MIC (E. coli AR-0493) was greater than 32 µg/mL, the MIC (K. pneumoniae S47889) was greater than 32 µg/mL and the MIC (E. cloacae ATCC 29893) was greater than 32 µg/mL. For the same compound, the MIC (P. aeruginosa PA01) was greater than 32 µg/mL, the MIC (E. coli ΔrfaC JW3596) was 0.25 µg/mL (≈ 0.51 µM) and the MIC (E. coli MG1655) was greater than 32 µg/mL. For the same compound, the MIC (S. aureus ATCC 29213) was 0.016 µg/mL (≈ 0.0326 µM), the “inhibition of E. coli FabI in vitro (in words)” value (E. coli FabI) was “potent FabI inhibitors” and the “activity (in words)” value [1] was “no activity”.
